The results in this text go back to publication PMC5707448, “Luminescent platinum(II) complexes with self-assembly and anti-cancer properties: hydrogel, pH dependent emission color and sustained-release properties under physiological conditions” (Chemical Science, 2015).

SMILES strings stand for the structures.

For series [1], the system named is HeLa cells. The series is described as follows: Naphthol blue black (NBB) staining assay, HeLa. The series is classed as cell-based, human. The following applies: 72 h incubation, read-out: Anti-proliferative activities towards HeLa cells (NBB staining assay). The protocol:
MTT assay Cancer cells (cell density = 4000-6000 cells/100µL) were seeded in a 96-well, flat-bottomed microtitre plate in growth medium (100 µL) and incubated at 37 °C under a 5% CO2 atmosphere for 24 h. Different concentrations of complexes were added and the plates were incubated for 72 h. […]
Naphthol blue black (NBB) staining assay After a total incubation time of 72 h, the medium was removed and a mixture of 50 µL of formaldehyde (3% in PBS) and 50 µL of NBB solution (0.05% NBB, 0.1 M sodium acetate, 9% acetic acid) was added. After further 30 min incubation, the mixture was removed and each well was washed with deionized water for 3 times. The plates were air-dried and 100 µL of NaOH (50 mg/mL) was added to solubilize the NBB-stained cells. The plates were […]
shaken for 1 h. […]

The next series deals with HeLa. The series is described as follows: MTT cytotoxicity assay, HeLa. The note with it: 72 h treatment. The series is classed as cell-based, human. The protocol:
(§1) We then tested whether accumulation of platinum(II) complexes in lysosomes was associated with an increase in lysosomal membrane permeability (LMP). […] The cells were then treated with 1a or 2 at different concentrations.[17] […] Induction of LMP is a known cell death mechanism.[19] Therefore, we examined the cytotoxicity of the platinum(II) complexes towards different cancer cells by means of MTT (3-(4,5-dimethyl-2-thiazolyl)-2,5-diphenyltetrazolium bromide) (Table 1) and naphthol blue black (NBB) staining (Table S4 ^†) assays. […]
(§2) MTT assay Cancer cells (cell density = 4000-6000 cells/100µL) were seeded in a 96-well, flat-bottomed microtitre plate in growth medium (100 µL) and incubated at 37 °C under a 5% CO2 atmosphere for 24 h. Different concentrations of complexes were added and the plates were incubated for 72 h. After a total incubation time of 72 h, MTT in PBS solution (5 mg/mL, 10 µL) was added to each well. The plates were incubated at 37 °C under a 5% CO2 atmosphere for another 4 h, followed by adding 100 µL of sodium dodecyl sulfate (SDS, 10%) in diluted hydrochloric acid to each well. After further in dark at 37 °C overnight, the percentage of survival cells were determined with a microtitre plate reader at 590 nm. […]
On the technique in general: Tetrazolium assays rely on reduction of a dye to a coloured formazan, in cell work by metabolically active cells.

The subject of series [2] is hepatocellular carcinoma cells (HepG2). The series is described as follows: MTT cytotoxicity assay, HepG2. The series is classed as cell-based. The note with it: 72 h treatment. The method, then: as §1, §2
Series [3] has as its system non-tumorigenic immortalized liver cells (MIHA). The series is described as follows: MTT cytotoxicity assay, MIHA. The series is classed as cell-based. The note with it: 72 h treatment. The method, then: as §1, §2
Series [4] concerns ovarian carcinoma (A2780). Kind of series: MTT cytotoxicity assay, A2780. The series is classed as cell-based. The note with it: 72 h treatment. The protocol:
as §1, §2

A further series deals with B16 melanoma. Kind of series: MTT cytotoxicity assay, B16. The note with it: 72 h treatment. The format is cell-based. The method, then:
as §1, §2

Another series has as its system breast cancer (MDA). Kind of series: MTT cytotoxicity assay, MDA. The format is cell-based. The following applies: 72 h treatment. The protocol: as §1, §2
The subject of series [5] is nasopharyngeal carcinoma (SUNE1). The series is described as follows: MTT cytotoxicity assay, SUNE1. The format is cell-based. The note with it: 72 h treatment. The protocol:
as §1, §2

Series [6] deals with HeLa cells. Kind of series: Sustained cytotoxicity in Transwell plates (MTT), HeLa in lower chamber. The series is classed as cell-based, human. The following applies: upper chamber loaded for 1 h, total 72 h. The method, then: The sustained cytotoxicity of 1a-hydrogel towards HeLa cells was tested in double-chambered Transwell® 24-well plates (Fig. 8a). The plate has a semi-permeable membrane to separate the HeLa cells (lower chamber) from direct contact with hydrogel (upper chamber). After treatment of HeLa cells with 1a-hydrogel (100 μM) at different time intervals, the upper chambers were removed and the HeLa cells were further incubated in the absence of the hydrogel. After a total of 72 h, the cell survival percentage was quantified by MTT assay. […] Therefore, an acidic environment can stimulate a faster release of 1a from 1a-hydrogel resulting in a more rapid cytotoxic effect. As the microenvironment of tumor tissues is often acidic compared to that of normal tissues,[20]1a-hydrogel could potentially achieve selective cytotoxicity towards tumor cells under in vivo conditions. […]
orifice, stored in pre-cooled Hank’s Balanced Solution (HBSS), and then cut with small scissor into about 2-3 mm3. The specimens were then digested with 0.5% collagenase IV at 37 °C for 15 min, filtered through sterile 100 mesh filter screen. […]
(§3) MTT assay Cancer cells (cell density = 4000-6000 cells/100µL) were seeded in a 96-well, flat-bottomed microtitre plate in growth medium (100 µL) and incubated at 37 °C under a 5% CO2 atmosphere for 24 h. […] After further in dark at 37 °C overnight, the percentage of survival cells were determined with a microtitre plate reader at 590 nm.
Naphthol blue black (NBB) staining assay After a total incubation time of 72 h, the medium was removed and a mixture of 50 µL of formaldehyde (3% in PBS) and 50 µL of NBB solution (0.05% NBB, 0.1 M sodium acetate, 9% acetic acid) was added. […] The percentage of survival cells was determined with a microtitre plate […]
and 72 h). […] After further in dark at 37 °C overnight, the percentage of survival cells were determined with a microtitre plate reader at 590 nm. […]

The subject of series [7] is HeLa cells. Kind of series: Lysosomal membrane permeability by acridine orange staining. The format is cell-based, human. The note with it: 5 or 10 μM, 30 min, 37 °C.
Series [8] has as its system HeLa cells. Kind of series: Soft agar colony formation assay. The following applies: 2 μM, 7 day. The series is classed as cell-based, human. The protocol: HeLa cells (0.07 × 106) were seeded with 600 µL cultured medium in the lower chambers of the double-decked Transwell® 24-well plates and incubated at 37 °C under a 5% CO2 atmosphere for 24 h. A uniform scratch was introduced on each well using a […] and the images of the scratches were recorded (0 h).
Berberine@1a-hydrogel and 1a-hydrogel in 100 µL medium was separately introduced to the upper chamber. The upper chambers were detached from the lower chamber after 4 h or 8 h incubation time. The images of the scratches were captured after 24 h incubation time.
Soft agar colony formation assay
HeLa cells (1.5 × 105) were mixed with solvent control or 1a (2 µM) in 2 mL medium with 0.35% soft agar per well in a 6-well plate coated with medium with 0.7% soft agar. 1 mL medium containing solvent control or 1a (2 µM) was added to the soft agar after the soft agar was solidified. The imaging was captured after incubating the plate at 37 °C under a 5% CO2 atmosphere for 7 day.

The subject of series [9] is primary bladder cancer cells. The series is described as follows: MTT assay on primary bladder cancer cells. The note with it: 72 h incubation, read-out: Cytotoxic IC50, primary bladder cancer cells. The series is classed as cell-based, human. The method, then: orifice, stored in pre-cooled Hank’s Balanced Solution (HBSS), and then cut with small scissor into about 2-3 mm3. The specimens were then digested with 0.5% collagenase IV at 37 °C for 15 min, filtered through sterile 100 mesh filter screen. The cells were collected by centrifugation at 700 g for 5 min, and then re-suspended in DMEM culture medium supplemented with penicillin (100 units/ml), streptomycin (100 μg/ml) and fungazone (0.25 μg/ml) at 37 °C in 95% air, 5% CO2, and cultured in […]
The medium was replaced continuously every day. The interstitial cells were removed from the primary bladder cancer cells by trypsinization with 10-times diluted enzyme. The cells were used for drug screening when the confluence reached about 70%-80%. […]
as §3
Naphthol blue black (NBB) staining assay After a total incubation time of 72 h, the medium was removed and a mixture of 50 µL of formaldehyde (3% in PBS) and 50 µL of NBB solution (0.05% NBB, 0.1 M sodium acetate, 9% acetic acid) was added. […] The percentage of survival cells was determined with a microtitre plate

Where [10] appears, read: pH 7.4, 1a-hydrogel and cisplatin 100 μM.

On to `Cc1cccc(C)c1[N+]#[C][Pt-2]12[c]3ccccc3-c3cccc([n+]31)-c1cc[nH][n+]12.O=S(=O)(O)C(F)(F)F` (centres unmarked) [Complex 1b], for which the IC50 with HeLa cells [1] is 0.9 ± 0.17 µM; in the series with HeLa it was 2.8 ± 0.2 µM; in [2], 1.7 ± 0.4 µM; in series [3] it was 5.23 ± 0.62 µM; in [4], 1.2 ± 0.1 µM; with B16 melanoma, 0.42 ± 0.02 µM. Also, the IC50 with breast cancer (MDA) was found to be 2.1 ± 0.5 µM; in [5], 2.8 ± 0.6 µM.
Turning to `COc1ccc([N+]#[C][Pt-2]23[c]4ccccc4-c4cccc([n+]42)-c2cc[nH][n+]23)cc1.O=S(=O)(O)C(F)(F)F` (centres unmarked) [Complex 3], the IC50 with HeLa cells [1] was determined as 1.98 ± 0.21 µM; in the series on HeLa, 3.8 ± 0.5 µM; in series [2] it was 2.7 ± 0.2 µM; in series [3] it was 9.56 ± 2.15 µM; in series [4] it was 2.7 ± 0.1 µM; in the series on B16 melanoma, 2.6 ± 0.2 µM. The IC50 came out at 4.2 ± 1 µM in the series on breast cancer (MDA) and 3.9 ± 0.7 µM in [5].
In the case of `O=S(=O)(O)C(F)(F)F.[C](#[N+]c1ccc2ccccc2c1)[Pt-2]12[c]3ccccc3-c3cccc([n+]31)-c1cc[nH][n+]12` (centres unmarked) [Complex 4], the IC50 with HeLa cells [1] came to 3.52 ± 0.89 µM; in the series with HeLa, 8.3 ± 0.9 µM; in [2], 6.2 ± 0.6 µM; in [3], 13.5 ± 2.12 µM; in [4] it was 5 ± 0.2 µM; in the series with B16 melanoma, 3 ± 0.3 µM. Also, the figures for the IC50 (in the series with breast cancer (MDA); in series [5]) were 7.4 ± 0.5 µM and 7.9 ± 1.3 µM, respectively.
Turning to `N.N.[Cl][Pt][Cl]` [Cisplatin], the Cell survival with HeLa cells [6] (pH 6.0, 100 μM) is approximately 20%; in the series on HeLa cells [6] (setting [10]), approximately 20%. For the same compound, in the series on HeLa cells [1], the IC50 is 4.29 ± 0.36 µM.
With `COCCOCCOc1ccc([N+]#[C][Pt-2]23[c]4ccccc4-c4cccc([n+]42)-c2cc[nH][n+]23)cc1.O=S(=O)(O)C(F)(F)F` (centres unmarked) [Complex 5], the IC50 with HeLa cells [1] came out at 9.47 ± 1.92 µM; with HeLa, 14.4 ± 3.5 µM; in series [2], 9 ± 1.6 µM; in [3], 20.2 ± 2.92 µM; in series [4], 11.7 ± 2.1 µM; with B16 melanoma it was 6.2 ± 0.5 µM. For the same compound, the IC50 with breast cancer (MDA) came to 8.3 ± 1.6 µM; in series [5] it was 12.3 ± 4.2 µM.
As to `CCCC[N+]#[C][Pt-2]12[c]3ccccc3-c3cccc([n+]31)-c1cc[nH][n+]12.[Cl-]` (centres unmarked) [Complex 2], the IC50 in the series with HeLa cells [1] was 2.28 ± 0.18 µM; with HeLa it was 5.1 ± 1.1 µM; in [2] it was 4 ± 0.8 µM; in series [3] it was 8.12 ± 1.27 µM; in [4], 3.3 ± 0.2 µM; in the series on B16 melanoma, 0.85 ± 0.07 µM. For the same compound, the IC50 stood at 5 ± 0.2 µM in the series on breast cancer (MDA) and 4.4 ± 1 µM in [5]. Moreover, in the series with HeLa cells [7], the “Lysosomal membrane permeability (red fluorescence of acridine orange)” value is “dose-dependent reductions of red fluorescence”.
In the case of `Cc1cccc(C)c1[N+]#[C][Pt-2]12[c]3ccccc3-c3cccc([n+]31)-c1cc[nH][n+]12.[Cl-]` (centres unmarked) [Complex 1a, [Pt(C^N^N^pyr)(C?NR^1)]Cl], in the series with HeLa cells [6] (setting [10]), the Cell survival is given as approximately 15%. Also, the IC50 in the series with HeLa cells [1] came out at 1.05 ± 0.06 µM; with HeLa, 4.4 ± 0.6 µM; in series [2] it was 1.3 ± 0.1 µM; in series [3] it was 6.36 ± 0.15 µM; in [4], 1.2 ± 0.1 µM; in the series on B16 melanoma, 0.66 ± 0.04 µM. Also, the IC50 was determined as 1.6 ± 0.4 µM in the series with breast cancer (MDA), 6.9 µM in series [9] and 3.5 ± 0.8 µM in series [5]. The “Lysosomal membrane permeability (red fluorescence of acridine orange)” value with HeLa cells [7] was “dose-dependent reductions of red fluorescence”. Moreover, the Anchorage-independent colony formation result in the series with HeLa cells [8] is listed as “inhibited anchorage-independent colony formation”.
